Test results taken from ChEMBL document CHEMBL6134890, “Terminally Symmetric β-Turn Peptides for Multidrug-Resistant Bacterial Infections” (J Med Chem, 2025).
In brackets after ≈: the same amount, converted by molar mass. Peptide text beside a SMILES is read from it.

Experiments:
[1] = test system: Staphylococcus aureus; experiment: Antimicrobial activity against multi-drug resistant Staphylococcus aureus assessed as reduction in bacterial growth by broth dilution method; type: functional
[2] = test system: Escherichia coli; experiment: Antimicrobial activity against multi-drug resistant Escherichia coli assessed as reduction in bacterial growth by broth dilution method; type: functional
[3] = test system: Acinetobacter baumannii; experiment: Antimicrobial activity against multi-drug resistant Acinetobacter baumannii assessed as reduction in bacterial growth by broth dilution method; type: functional
[4] = test system: Klebsiella pneumoniae; experiment: Antimicrobial activity against multi-drug resistant Klebsiella pneumoniae assessed as reduction in bacterial growth by broth dilution method; type: functional
[5] = Hemolytic activity in human Red blood cell assessed as hemolysis incubated for 1 hrs by microplate reader based analysis; type: toxicity; conditions: erythrocyte
[6] = test system: Staphylococcus epidermidis; experiment: Antimicrobial activity against multi-drug resistant Staphylococcus epidermidis assessed as reduction in bacterial growth by broth dilution method; type: functional
[7] = test system: Staphylococcus aureus; experiment: Antimicrobial activity against Staphylococcus aureus ATCC 25923 assessed as reduction in bacterial growth by broth dilution method; type: functional
[8] = test system: Escherichia coli; experiment: Antimicrobial activity against Escherichia coli ATCC 25922 assessed as reduction in bacterial growth by broth dilution method; type: functional
[9] = test system: Enterococcus faecalis; experiment: Antimicrobial activity against multi-drug resistant Enterococcus faecalis assessed as reduction in bacterial growth by broth dilution method; type: functional

SMILES | MIC [1] [µM] | MIC [2] [µM] | MIC [3] [µM] | MIC [4] [µM] | HC10 [5] [µM] | MIC [6] [µM] | MIC [7] [µM] | MIC [8] [µM] | MIC [9] [µM]
CC[C@H](C)[C@H](NC(=O)[C@H](CCCCN)NC(=O)[C@@H](NC(=O)[C@H](CCCCN)NC(=O)[C@@H](NC(=O)[C@H](Cc1ccccc1)NC(=O)[C@@H]1CCCN1C(=O)[C@H](Cc1c[nH]c2ccccc12)NC(=O)[C@H](Cc1c[nH]c2ccccc12)NC(=O)[C@H](Cc1c[nH]c2ccccc12)NC(=O)[C@@H]1CCCN1C(=O)[C@H](Cc1ccccc1)NC(=O)[C@@H](NC(=O)[C@H](CCCCN)NC(=O)[C@@H](NC(=O)[C@H](CCCCN)NC(=O)[C@@H](NC(=O)[C@@H](N)CCCCN)[C@@H](C)CC)[C@@H](C)CC)[C@@H](C)CC)[C@@H](C)CC)[C@@H](C)CC)C(=O)N[C@@H](CCCCN)C(N)=O (H-KIKIKIFPWWWPFIKIKIK-NH2) | 128 (≈ 322 µg/mL) | 128 (≈ 322 µg/mL) | 128 (≈ 322 µg/mL) | 64 (≈ 161 µg/mL) | 7.28 | 128 (≈ 322 µg/mL) | 128 (≈ 322 µg/mL) | 128 (≈ 322 µg/mL) | 64 (≈ 161 µg/mL)
NCCCC[C@H](NC(=O)[C@H](Cc1c[nH]c2ccccc12)NC(=O)[C@H](CCCCN)NC(=O)[C@H](Cc1c[nH]c2ccccc12)NC(=O)[C@@H]1CCCN1C(=O)[C@H](Cc1c[nH]c2ccccc12)NC(=O)[C@H](Cc1c[nH]c2ccccc12)NC(=O)[C@H](Cc1c[nH]c2ccccc12)NC(=O)[C@@H]1CCCN1C(=O)[C@H](Cc1c[nH]c2ccccc12)NC(=O)[C@H](CCCCN)NC(=O)[C@H](Cc1c[nH]c2ccccc12)NC(=O)[C@@H](N)CCCCN)C(N)=O (H-KWKWPWWWPWKWK-NH2) | 2 (≈ 4.05 µg/mL) | 4 (≈ 8.11 µg/mL) | 4 (≈ 8.11 µg/mL) | 16 (≈ 32.4 µg/mL) | 10.37 | 2 (≈ 4.05 µg/mL) | 2 (≈ 4.05 µg/mL) | 8 (≈ 16.2 µg/mL) | 2 (≈ 4.05 µg/mL)
CC[C@H](C)[C@H](NC(=O)[C@H](CCCCN)NC(=O)[C@@H](NC(=O)[C@@H]1CCCN1C(=O)[C@H](Cc1c[nH]c2ccccc12)NC(=O)[C@H](Cc1c[nH]c2ccccc12)NC(=O)[C@H](Cc1c[nH]c2ccccc12)NC(=O)[C@@H]1CCCN1C(=O)[C@@H](NC(=O)[C@H](CCCCN)NC(=O)[C@@H](NC(=O)[C@@H](N)CCCCN)[C@@H](C)CC)[C@@H](C)CC)[C@@H](C)CC)C(=O)N[C@@H](CCCCN)C(N)=O (H-KIKIPWWWPIKIK-NH2) | 4 (≈ 6.94 µg/mL) | 8 (≈ 13.9 µg/mL) | 16 (≈ 27.8 µg/mL) | 32 (≈ 55.5 µg/mL) | > 256 | 16 (≈ 27.8 µg/mL) | 4 (≈ 6.94 µg/mL) | 8 (≈ 13.9 µg/mL) | 8 (≈ 13.9 µg/mL)
CC[C@H](C)[C@H](NC(=O)[C@H](CCCCN)NC(=O)[C@@H](NC(=O)[C@H](CCCCN)NC(=O)[C@@H](NC(=O)[C@@H]1CCCN1C(=O)[C@H](Cc1c[nH]c2ccccc12)NC(=O)[C@H](Cc1c[nH]c2ccccc12)NC(=O)[C@H](Cc1c[nH]c2ccccc12)NC(=O)[C@@H]1CCCN1C(=O)[C@@H](NC(=O)[C@H](CCCCN)NC(=O)[C@@H](NC(=O)[C@H](CCCCN)NC(=O)[C@@H](NC(=O)[C@@H](N)CCCCN)[C@@H](C)CC)[C@@H](C)CC)[C@@H](C)CC)[C@@H](C)CC)[C@@H](C)CC)C(=O)N[C@@H](CCCCN)C(N)=O (H-KIKIKIPWWWPIKIKIK-NH2) | 8 (≈ 17.7 µg/mL) | 16 (≈ 35.5 µg/mL) | 64 (≈ 142 µg/mL) | 16 (≈ 35.5 µg/mL) | 33.38 | 8 (≈ 17.7 µg/mL) | 4 (≈ 8.87 µg/mL) | 16 (≈ 35.5 µg/mL) | 8 (≈ 17.7 µg/mL)
NCCCC[C@H](NC(=O)[C@H](Cc1c[nH]c2ccccc12)NC(=O)[C@H](CCCCN)NC(=O)[C@H](Cc1c[nH]c2ccccc12)NC(=O)[C@H](CCCCN)NC(=O)[C@@H]1CCCN1C(=O)[C@H](Cc1c[nH]c2ccccc12)NC(=O)[C@H](Cc1c[nH]c2ccccc12)NC(=O)[C@H](Cc1c[nH]c2ccccc12)NC(=O)[C@@H]1CCCN1C(=O)[C@H](CCCCN)NC(=O)[C@H](Cc1c[nH]c2ccccc12)NC(=O)[C@H](CCCCN)NC(=O)[C@H](Cc1c[nH]c2ccccc12)NC(=O)[C@@H](N)CCCCN)C(N)=O (H-KWKWKPWWWPKWKWK-NH2) | 4 (≈ 9.14 µg/mL) | 4 (≈ 9.14 µg/mL) | 4 (≈ 9.14 µg/mL) | 4 (≈ 9.14 µg/mL) | 64.03 | 4 (≈ 9.14 µg/mL) | 4 (≈ 9.14 µg/mL) | 4 (≈ 9.14 µg/mL) | 4 (≈ 9.14 µg/mL)
NCCCC[C@H](NC(=O)[C@H](Cc1c[nH]c2ccccc12)NC(=O)[C@H](CCCCN)NC(=O)[C@H](Cc1ccccc1)NC(=O)[C@@H]1CCCN1C(=O)[C@H](Cc1c[nH]c2ccccc12)NC(=O)[C@H](Cc1c[nH]c2ccccc12)NC(=O)[C@H](Cc1c[nH]c2ccccc12)NC(=O)[C@@H]1CCCN1C(=O)[C@H](Cc1ccccc1)NC(=O)[C@H](CCCCN)NC(=O)[C@H](Cc1c[nH]c2ccccc12)NC(=O)[C@H](CCCCN)NC(=O)[C@@H](N)Cc1c[nH]c2ccccc12)C(=O)N[C@@H](Cc1c[nH]c2ccccc12)C(N)=O (H-WKWKFPWWWPFKWKW-NH2) | 16 (≈ 37.1 µg/mL) | 128 (≈ 297 µg/mL) | 16 (≈ 37.1 µg/mL) | 256 (≈ 594 µg/mL) | 6.82 | 16 (≈ 37.1 µg/mL) | 8 (≈ 18.6 µg/mL) | 128 (≈ 297 µg/mL) | 16 (≈ 37.1 µg/mL)
